Test results from PubChem BioAssay AID2060502 (Molecular Pharmacology Branch, DTP, NCI, 2025).

Test system: 885724-159-R-J1-PDC complex spheroid viability
Test: Anticancer human tumor 885724-159-R-J1-PDC patient-derived pancreatic adenocarcinoma cell line growth inhibition [GQUAD]
Settings: for IC50: curve of first compound; for viability, T/C: stronger effect = lower value
Description: DNA G-quadruplex Stabilizer Agents in Combinations in Complex Spheroids
A high-throughput screen of multi-cell type tumor spheroids was designed to identify active combinations of DNA G-quadruplex stabilizer agents and targeted small molecules. Complex spheroids include a stromal component modeled by human endothelial cells (HUVEC) and fibroblasts modeled by human mesenchymal stem cells (MSCs). The concentration ranges selected for each drug and investigational agent were based upon clinically achievable concentrations if the clinical Cmax of the agent was known.
Compounds. The drugs and investigational agents: pidnarulex (CX-5461; NSC782164), APTO-253 (NSC789042), BRACO-19 (NSC847499), peposertib (NSC802822), ceralasertib (NSC780249), elimusertib (NSC800525), camonsertib (NSC841442), AZD-1390 (NSC803789), olaparib (NSC753686), talazoparib (NSC767125), ART-558 (NSC835418), sotorasib (NSC818433), MRTX-1133 (NSC836407), SN-38 (NSC673596), topotecan (NSC609699), etoposide (NSC141540), doxorubicin (NSC123127), gemcitabine (NSC613327), 5-fluorouracil (NSC19893), paclitaxel (NSC125973), vemurafenib (NSC761431), panobinostat (NSC761190), R-306465 (JNJ-16241199; NSC773264), adavosertib (NSC754352), TP-3654 (NSC805149), carboplatin (NSC241240), KSQ-4279 (NSC840948), and staurosporine (NSC755774) were obtained from the National Cancer Institute (NCI) Developmental Therapeutics Program Chemical Repository (34). The FDA-approved anticancer drug set is available from the NCI Developmental Therapeutics Program. […] The stock solutions were prepared in dimethyl sulfoxide (DMSO, Sigma-Aldrich, St. Louis, MO, cat. D2650) at 800-fold the tested concentration and stored at -70 degrees C prior to their use. All drugs and investigational agents were tested over a range starting from a high concentration at or near the clinical Cmax and decreasing in half-log increments. If the clinical Cmax for an agent had not been determined, the highest concentration tested was 10 microM.
2.3 Cell Culture. All cells were maintained in an incubator at 37 degrees C and 5% CO2 with 95% humidity. The PDC lines were cultured according to standard operating procedures established by the NCI PDMR. All PDCs were thawed and cultured in Matrigel-coated flasks prepared with a working solution of 1X Ham's F-12 nutrient mix, without supplementation (Invitrogen, cat. 11765054), 100 U/mL penicillin-streptomycin (Invitrogen, cat. 15140122), and 2.5% Matrigel (Corning Inc., cat. 354248) for the first three passages. The 857933-349-R-J2-PDC line was cultured in 6C/Colon 1B media, which includes advanced DMEM/F-12 (Thermo Fisher Scientific, cat. 12634028), 10 mM HEPES (Thermo Fisher Scientific, cat. 15630080), 1X GlutaMAX supplement (Thermo Fisher Scientific, cat. 35050061), 0.1 mg/mL primocin (InvivoGen, cat. ant-pm-2), 10% defined fetal bovine serum, heat inactivated (HyClone Laboratories Inc., cat. SH30070.03HI), 50% L-WRN conditioned media (ATCC, cat. CRL-3276), 1.25 mM N-Acetyl-L-cysteine (Sigma-Aldrich, cat. A9165), 10 mM nicotinamide (Sigma-Aldrich, cat. N0636), 1X B-27 supplement (Thermo Fisher Scientific, cat. 17504044), 1X N-2 supplement (Thermo Fisher Scientific, cat. 17502048), 10 microM Y-27632 dihydrochloride (Tocris Bioscience, cat. 1254), and 50 ng/mL human EGF recombinant protein (Thermo Fisher Scientific, cat. PHG0311). The 485176-168-R4-J1-PDC line was cultured in Panc media, which includes all 6C/Colon 1B media components plus 100 ng/mL human FGF-10 (Thermo Fisher Scientific, cat. 100-26), 500 nM SB-431542 (Selleckchem, cat. S1067), and gastrin (Tocris, cat. 3006).
[…]

[1] = second compound 0.0316 µM, first compound 0.0316 µM
[2] = second compound 0.0316 µM, first compound 0.1 µM
[3] = second compound 0.0316 µM, first compound 0.316 µM
[4] = second compound 0.0316 µM, first compound 1 µM
[5] = second compound 0.0316 µM, first compound 3.16 µM
[6] = second compound 0.0316 µM, first compound 10 µM
[7] = second compound 0.1 µM, first compound 0.0316 µM
[8] = second compound 0.1 µM, first compound 0.1 µM
[9] = second compound 0.1 µM, first compound 0.316 µM
[10] = second compound 0.1 µM, first compound 1 µM
[11] = second compound 0.1 µM, first compound 3.16 µM
[12] = second compound 0.1 µM, first compound 10 µM
[13] = second compound 0.316 µM, first compound 0.0316 µM
[14] = second compound 0.316 µM, first compound 0.1 µM
[15] = second compound 0.316 µM, first compound 0.316 µM
[16] = second compound 0.316 µM, first compound 1 µM
[17] = second compound 0.316 µM, first compound 3.16 µM
[18] = second compound 0.316 µM, first compound 10 µM
[19] = second compound 1 µM, first compound 0.0316 µM
[20] = second compound 1 µM, first compound 0.1 µM
[21] = second compound 1 µM, first compound 0.316 µM
[22] = second compound 1 µM, first compound 1 µM
[23] = second compound 1 µM, first compound 3.16 µM
[24] = second compound 1 µM, first compound 10 µM
[25] = second compound 3.16 µM, first compound 0.0316 µM
[26] = second compound 3.16 µM, first compound 0.1 µM
[27] = second compound 3.16 µM, first compound 0.316 µM
[28] = second compound 3.16 µM, first compound 1 µM
[29] = second compound 3.16 µM, first compound 3.16 µM
[30] = second compound 3.16 µM, first compound 10 µM
[31] = second compound 10 µM, first compound 0.0316 µM
[32] = second compound 10 µM, first compound 0.1 µM
[33] = second compound 10 µM, first compound 0.316 µM
[34] = second compound 10 µM, first compound 1 µM
[35] = second compound 10 µM, first compound 3.16 µM
[36] = second compound 10 µM, first compound 10 µM
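Note: spheroids exposed to agents for seven days before readout.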
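Throughout, for viability, T/C: percent of vehicle control viability where 100% = DMSO wells.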

## CCCS(=O)(=O)Nc1ccc(F)c(C(=O)c2c[nH]c3ncc(-c4ccc(Cl)cc4)cc23)c1F + CN(C)c1ccc(Nc2c3ccc(NC(=O)CCN4CCCC4)cc3nc3cc(NC(=O)CCN4CCCC4)ccc23)cc1
Second compound 0.0316 µM
  IC50: > 10 µM
Second compound 0.1 µM
  IC50: > 10 µM
Second compound 0.316 µM
  IC50: > 10 µM
Second compound 1 µM
  IC50: > 10 µM
Second compound 3.16 µM
  IC50: 9.74 µM
Second compound 10 µM
  IC50: 5.73 µM
[1]
  viability, T/C: 112%
[2]
  viability, T/C: 114%
[3]
  viability, T/C: 116%
[4]
  viability, T/C: 130%
[5]
  viability, T/C: 139%
[6]
  viability, T/C: 84.7%
[7]
  viability, T/C: 99.8%
[8]
  viability, T/C: 98.1%
[9]
  viability, T/C: 121%
[10]
  viability, T/C: 129%
[11]
  viability, T/C: 133%
[12]
  viability, T/C: 65.5%
[13]
  viability, T/C: 97%
[14]
  viability, T/C: 99.3%
[15]
  viability, T/C: 108%
[16]
  viability, T/C: 107%
[17]
  viability, T/C: 146%
[18]
  viability, T/C: 66%
[19]
  viability, T/C: 80.4%
[20]
  viability, T/C: 82%
[21]
  viability, T/C: 109%
[22]
  viability, T/C: 118%
[23]
  viability, T/C: 134%
[24]
  viability, T/C: 64.4%
[25]
  viability, T/C: 81%
[26]
  viability, T/C: 74.2%
[27]
  viability, T/C: 101%
[28]
  viability, T/C: 101%
[29]
  viability, T/C: 114%
[30]
  viability, T/C: 48.9%
[31]
  viability, T/C: 80.2%
[32]
  viability, T/C: 73.1%
[33]
  viability, T/C: 82.1%
[34]
  viability, T/C: 99.5%
[35]
  viability, T/C: 93.9%
[36]
  viability, T/C: 16.5%

## CC(C)n1c(=O)n(C)c2cnc3cc(F)c(-c4ccc(OCCCN5CCCCC5)nc4)cc3c21 + CN(C)c1ccc(Nc2c3ccc(NC(=O)CCN4CCCC4)cc3nc3cc(NC(=O)CCN4CCCC4)ccc23)cc1
Second compound 0.0316 µM
  IC50: > 10 µM
Second compound 0.1 µM
  IC50: > 10 µM
Second compound 0.316 µM
  IC50: > 10 µM
Second compound 1 µM
  IC50: > 10 µM
Second compound 3.16 µM
  IC50: 7.97 µM
Second compound 10 µM
  IC50: 1.2 µM
[1]
  viability, T/C: 105%
[2]
  viability, T/C: 111%
[3]
  viability, T/C: 100%
[4]
  viability, T/C: 91.7%
[5]
  viability, T/C: 97%
[6]
  viability, T/C: 56%
[7]
  viability, T/C: 109%
[8]
  viability, T/C: 107%
[9]
  viability, T/C: 112%
[10]
  viability, T/C: 101%
[11]
  viability, T/C: 88.2%
[12]
  viability, T/C: 68.2%
[13]
  viability, T/C: 107%
[14]
  viability, T/C: 101%
[15]
  viability, T/C: 92.2%
[16]
  viability, T/C: 91.3%
[17]
  viability, T/C: 85.2%
[18]
  viability, T/C: 56.2%
[19]
  viability, T/C: 92.6%
[20]
  viability, T/C: 83.4%
[21]
  viability, T/C: 101%
[22]
  viability, T/C: 82.7%
[23]
  viability, T/C: 74.5%
[24]
  viability, T/C: 54.3%
[25]
  viability, T/C: 83.7%
[26]
  viability, T/C: 80.2%
[27]
  viability, T/C: 86.4%
[28]
  viability, T/C: 64.1%
[29]
  viability, T/C: 66.6%
[30]
  viability, T/C: 46%
[31]
  viability, T/C: 78.7%
[32]
  viability, T/C: 84.5%
[33]
  viability, T/C: 60.3%
[34]
  viability, T/C: 55.1%
[35]
  viability, T/C: 33.3%
[36]
  viability, T/C: 7.2%

## COc1cccc2c1C(=O)c1c(O)c3c(c(O)c1C2=O)CC(O)(C(=O)CO)CC3OC1CC(N)C(O)C(C)O1 (stereo unspecified) + CN(C)c1ccc(Nc2c3ccc(NC(=O)CCN4CCCC4)cc3nc3cc(NC(=O)CCN4CCCC4)ccc23)cc1
Second compound 0.0316 µM
  IC50: 2.17 µM
Second compound 0.1 µM
  IC50: 2.01 µM
Second compound 0.316 µM
  IC50: 1.73 µM
Second compound 1 µM
  IC50: 1.58 µM
Second compound 3.16 µM
  IC50: 1.62 µM
Second compound 10 µM
  IC50: 1.11 µM
[1]
  viability, T/C: 101%
[2]
  viability, T/C: 96.3%
[3]
  viability, T/C: 96.2%
[4]
  viability, T/C: 73.9%
[5]
  viability, T/C: 38.1%
[6]
  viability, T/C: 1.56%
[7]
  viability, T/C: 89.4%
[8]
  viability, T/C: 95.5%
[9]
  viability, T/C: 81%
[10]
  viability, T/C: 73.6%
[11]
  viability, T/C: 35.4%
[12]
  viability, T/C: 2.82%
[13]
  viability, T/C: 88.6%
[14]
  viability, T/C: 87.8%
[15]
  viability, T/C: 80.7%
[16]
  viability, T/C: 55.3%
[17]
  viability, T/C: 40.5%
[18]
  viability, T/C: 1.92%
[19]
  viability, T/C: 81.1%
[20]
  viability, T/C: 75%
[21]
  viability, T/C: 68.6%
[22]
  viability, T/C: 57%
[23]
  viability, T/C: 39.8%
[24]
  viability, T/C: 1.53%
[25]
  viability, T/C: 83.8%
[26]
  viability, T/C: 71%
[27]
  viability, T/C: 78.7%
[28]
  viability, T/C: 59.2%
[29]
  viability, T/C: 35.1%
[30]
  viability, T/C: 1.32%
[31]
  viability, T/C: 74.2%
[32]
  viability, T/C: 79.7%
[33]
  viability, T/C: 59.1%
[34]
  viability, T/C: 52.5%
[35]
  viability, T/C: 32.7%
[36]
  viability, T/C: 1.06%
